Key:
CYP3A4 = CYP3A4 (Homo sapiens (Human), UniProt P08684); test: Cytochrome P450 activity inhibition, CYP3A4; format: in vitro ADME; conditions: 10 μM, human liver microsomes
Description: Thereafter, in order to complete the reaction, an acetonitrile solution containing an internal standard material (Terfenadine) was added thereto, centrifugation (14,000 rpm, 4° C.) was performed for 5 minutes, and a supernatant was injected into a LC-MS/MS system to analyze the metabolites of the substrate drug, thereby evaluating drug metabolism enzyme inhibition by the arylethene derivative of the present invention.

CYP2C19 = CYP2C19 (Homo sapiens (Human), UniProt P33261); test: Cytochrome P450 activity inhibition, CYP2C19; format: in vitro ADME; conditions: 10 μM, human liver microsomes
Description: (§1) 1) Cytochrome P450 (CYP450) Activity Inhibition Evaluation

CYP1A2 = CYP1A2 (Homo sapiens (Human), UniProt P05177); test: Cytochrome P450 activity inhibition, CYP1A2; format: in vitro ADME; conditions: 10 μM, human liver microsomes
Description: as §1

CYP2D6 = CYP2D6 (Homo sapiens (Human), UniProt P10635); test: Cytochrome P450 activity inhibition, CYP2D6; format: in vitro ADME; conditions: 10 μM, human liver microsomes
Description: as §1

CYP2C9 = CYP2C9 (Homo sapiens (Human), UniProt P11712); test: Cytochrome P450 activity inhibition, CYP2C9; format: in vitro ADME; conditions: 10 μM, human liver microsomes
Description: as §1

ERRγ = format: cell-based; conditions: for Functional Assay, Cpds/Ref 5182: activity relative to reference compound GSK5182; for Functional Assay at 10 μM (% of control), Cpds: AD293, 24 hours
Description: AD293 was cultured in a 24-well plate for 24 hours, using a DMEM High glucose culture medium (Hyclone, USA) to which 0.5% FBS was added at a concentration of 9×10^4/well. The culture medium was replaced with a DMEM High glucose culture medium to which 10% FBS was added, treatment was performed with a mixture of a TransIT-LT1 transfection reagent (Minis, USA) and pCMX-Gal4-ERRγ, pFR-luciferase reporter plasmid, pCMV-β-gal, and culturing was performed for 24 hours. Thereafter, a luciferase activity assay and a β-gal assay were performed, respectively, with a lysate obtained after treatment with the arylethene derivative of the present invention for 24 hours. All results were derived from three or more independent repetitive experiments.

Chain of CYP2C19 (P33261 whole entry): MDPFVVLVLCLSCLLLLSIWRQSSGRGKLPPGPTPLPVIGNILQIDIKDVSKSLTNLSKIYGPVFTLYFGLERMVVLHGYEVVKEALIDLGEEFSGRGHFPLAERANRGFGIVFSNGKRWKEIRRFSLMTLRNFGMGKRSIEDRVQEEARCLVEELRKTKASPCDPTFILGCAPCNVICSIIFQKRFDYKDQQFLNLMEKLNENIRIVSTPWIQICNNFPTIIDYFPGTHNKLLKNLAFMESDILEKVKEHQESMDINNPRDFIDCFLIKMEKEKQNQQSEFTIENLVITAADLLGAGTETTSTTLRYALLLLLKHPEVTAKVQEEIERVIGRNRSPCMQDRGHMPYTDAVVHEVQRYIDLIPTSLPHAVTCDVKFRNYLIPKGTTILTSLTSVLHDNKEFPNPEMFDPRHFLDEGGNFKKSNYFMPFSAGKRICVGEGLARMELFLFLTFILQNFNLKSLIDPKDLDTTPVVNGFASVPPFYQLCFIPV
Chain of CYP1A2 (P05177 whole entry): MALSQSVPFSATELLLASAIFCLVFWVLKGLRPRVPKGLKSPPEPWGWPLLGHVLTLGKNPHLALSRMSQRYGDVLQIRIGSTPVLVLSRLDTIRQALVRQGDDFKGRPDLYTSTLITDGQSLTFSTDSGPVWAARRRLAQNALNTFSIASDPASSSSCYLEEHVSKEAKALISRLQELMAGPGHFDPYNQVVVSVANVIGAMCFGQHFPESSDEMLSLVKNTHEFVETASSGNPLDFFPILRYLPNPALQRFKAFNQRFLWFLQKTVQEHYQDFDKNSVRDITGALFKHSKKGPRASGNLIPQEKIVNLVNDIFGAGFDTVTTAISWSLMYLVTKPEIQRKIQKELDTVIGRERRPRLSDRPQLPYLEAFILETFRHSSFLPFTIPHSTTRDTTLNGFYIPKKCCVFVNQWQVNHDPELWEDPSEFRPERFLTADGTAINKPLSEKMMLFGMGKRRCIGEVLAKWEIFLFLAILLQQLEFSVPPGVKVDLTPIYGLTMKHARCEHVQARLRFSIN
Chain of CYP2C9 (P11712 whole entry): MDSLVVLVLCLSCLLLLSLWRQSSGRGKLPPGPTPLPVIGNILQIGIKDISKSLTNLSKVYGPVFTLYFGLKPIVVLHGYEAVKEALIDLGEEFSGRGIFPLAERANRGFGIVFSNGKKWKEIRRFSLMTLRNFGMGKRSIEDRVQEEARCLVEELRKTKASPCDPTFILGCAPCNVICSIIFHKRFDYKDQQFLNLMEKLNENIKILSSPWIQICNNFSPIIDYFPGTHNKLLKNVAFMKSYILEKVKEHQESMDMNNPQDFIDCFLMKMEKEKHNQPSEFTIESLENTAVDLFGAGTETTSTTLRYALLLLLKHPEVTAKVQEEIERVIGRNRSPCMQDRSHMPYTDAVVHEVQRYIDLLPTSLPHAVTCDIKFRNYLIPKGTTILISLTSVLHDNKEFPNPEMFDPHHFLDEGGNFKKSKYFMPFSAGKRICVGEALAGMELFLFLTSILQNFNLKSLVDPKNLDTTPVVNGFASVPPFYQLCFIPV
Chain of CYP3A4 (P08684 whole entry): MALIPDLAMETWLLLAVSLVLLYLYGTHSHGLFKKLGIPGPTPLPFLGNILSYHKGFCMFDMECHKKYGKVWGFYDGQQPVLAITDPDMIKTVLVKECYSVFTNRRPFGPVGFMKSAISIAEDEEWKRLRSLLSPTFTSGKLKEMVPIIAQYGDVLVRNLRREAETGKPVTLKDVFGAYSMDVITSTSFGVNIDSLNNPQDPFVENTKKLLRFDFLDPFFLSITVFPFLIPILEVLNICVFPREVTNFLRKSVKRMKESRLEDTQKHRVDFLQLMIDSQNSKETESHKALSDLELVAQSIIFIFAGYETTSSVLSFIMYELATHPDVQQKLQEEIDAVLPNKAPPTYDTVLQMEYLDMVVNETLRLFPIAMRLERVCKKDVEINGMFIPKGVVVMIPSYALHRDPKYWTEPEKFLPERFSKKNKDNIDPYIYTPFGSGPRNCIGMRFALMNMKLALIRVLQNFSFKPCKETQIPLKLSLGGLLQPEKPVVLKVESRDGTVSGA
Chain of CYP2D6 (P10635 whole entry): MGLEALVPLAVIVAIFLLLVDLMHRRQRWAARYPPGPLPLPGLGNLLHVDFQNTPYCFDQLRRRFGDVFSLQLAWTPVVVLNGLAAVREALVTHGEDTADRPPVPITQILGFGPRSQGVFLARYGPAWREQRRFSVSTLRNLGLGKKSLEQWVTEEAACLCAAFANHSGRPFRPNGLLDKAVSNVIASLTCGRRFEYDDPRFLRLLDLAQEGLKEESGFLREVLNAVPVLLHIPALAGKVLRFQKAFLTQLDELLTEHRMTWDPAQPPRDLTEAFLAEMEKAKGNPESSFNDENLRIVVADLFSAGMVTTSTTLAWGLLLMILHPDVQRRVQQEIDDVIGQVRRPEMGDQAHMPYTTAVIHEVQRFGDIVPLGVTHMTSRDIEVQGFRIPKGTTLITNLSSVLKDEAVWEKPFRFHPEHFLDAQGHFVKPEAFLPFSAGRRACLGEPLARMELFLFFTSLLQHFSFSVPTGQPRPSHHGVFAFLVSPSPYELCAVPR

Compound | CYP inhibition (% of control) 3A4 (CYP3A4) | CYP inhibition (% of control) 2C19 (CYP2C19) | CYP inhibition (% of control) 1A2 (CYP1A2) | CYP inhibition (% of control) 2D6 (CYP2D6) | CYP inhibition (% of control) 2C9 (CYP2C9) | Functional Assay, Cpds/Ref 5182 (ERRγ) | Functional Assay at 10 μM (% of control), Cpds (ERRγ)
OCCC/C(=C(\c1ccc(O)cc1)c1ccc(OCCN2CCOCC2)cc1)c1ccccc1 [Compound 6c] | 81.3 % of control | 81.6 % of control | 91.9 % of control | 96.4 % of control | 77.9 % of control | – | –
OCCC/C(=C(\c1ccc(O)cc1)c1ccc(OCCN2CCCC2)cc1)c1ccccc1 [Compound 6e] | 68.1 % of control | 64.1 % of control | 79.6 % of control | 80.6 % of control | 51.6 % of control | – | –
CN1CCCC1CCOc1ccc(/C(=C(/CCCO)c2ccccc2)c2ccc(O)cc2)cc1 (stereo not shown) [Compound 6g] | 83.7 % of control | 81.8 % of control | 97.8 % of control | 81.7 % of control | 75.4 % of control | 1.60 | –
CN1CCC[C@@H]1COc1ccc(/C(=C(/CCCO)c2ccccc2)c2ccc(O)cc2)cc1 [Compound 6i] | 79.4 % of control | 82.6 % of control | 98.1 % of control | 93.6 % of control | 86.7 % of control | – | –
CN1CCC[C@H]1CCOc1ccc(/C(=C(/CCCO)c2ccccc2)c2ccc(O)cc2)cc1 [Compound 6j] | 74.6 % of control | 89.1 % of control | 98.7 % of control | 85.2 % of control | 85.6 % of control | 0.77 | –
CN1CCC[C@@H]1CCOc1ccc(/C(=C(/CCCO)c2ccccc2)c2ccc(O)cc2)cc1 [Compound 6k] | – | – | – | – | – | 0.79 | –
CN1CCCC1CCOc1ccc(/C(=C(/CCCO)c2ccccc2)c2ccc(Br)cc2)cc1 (stereo not shown) [Compound 13d] | 90.2 % of control | 89.4 % of control | >100 % of control | >100 % of control | 97 % of control | – | –
CN1CCN(c2ccc(/C(=C(/CCCO)c3ccccc3)c3ccc([N+](=O)[O-])cc3)cc2)CC1 [Compound 18c] | – | 80 % of control | – | – | – | 0.42 | –
CN1CCN(c2ccc(/C(=C(/CCCO)c3ccccc3)c3ccc(O)cc3)cc2)CC1 [Compound 18d] | 64 % of control | – | 88 % of control | – | – | 0.97 | –
Cc1ccc(/C(=C(\CCCO)c2ccccc2)c2ccc(N3CCN(C)CC3)cc2)cc1 [Compound 18f] | – | – | >100 % of control | – | – | 0.82 | –
CC(C)N1CCN(c2ccc(/C(=C(/CCCO)c3ccccc3)c3ccc([N+](=O)[O-])cc3)cc2)CC1 [Compound 18g] | – | – | – | – | – | 0.84 | –
CCN1CCN(c2ccc(/C(=C(/CCCO)c3ccccc3)c3ccc(O)cc3)cc2)CC1 [Compound 18i] | – | – | – | – | – | 0.97 | –
CC(C)(C)OC(=O)N1CCN(c2ccc(/C(=C(/CCCO)c3ccccc3)c3ccc(Br)cc3)cc2)CC1 [Compound 18n] | – | – | – | – | – | 0.82 | –
CC(C)(C)OC(=O)N1CC(c2ccc(/C(=C(/CCCO)c3ccccc3)c3ccc(O)cc3)cc2)C1 [Compound 18t, tert-butyl (E)-3-(4-(5-hydroxy-1-(4-hydroxyphenyl)-2-phenylpent-1-en-1-yl)phenyl)azetidine-1-carboxylate] | 106 % of control | 93 % of control | 100 % of control | 98 % of control | 83 % of control | – | –
OCCC/C(=C(\c1ccc(Br)cc1)c1ccc(N2CCNCC2)cc1)c1ccccc1 [Compound 20a, (E)-5-(4-bromophenyl)-4-phenyl-5-(4-(piperazin-1-yl)phenyl)pent-4-en-1-ol] | 55 % of control | 61.9 % of control | 85 % of control | 70.7 % of control | 76 % of control | – | –
OCCC/C(=C(\c1ccc(O)cc1)c1ccc(N2CCNCC2)cc1)c1ccccc1 [Compound 20c] | – | – | – | – | – | 0.93 | –

Compound | CYP inhibition (% of control) 3A4 (CYP3A4) | CYP inhibition (% of control) 2C19 (CYP2C19) | CYP inhibition (% of control) 1A2 (CYP1A2) | CYP inhibition (% of control) 2D6 (CYP2D6) | CYP inhibition (% of control) 2C9 (CYP2C9) | Functional Assay, Cpds/Ref 5182 (ERRγ) | Functional Assay at 10 μM (% of control), Cpds (ERRγ)
CN1CCC(c2ccc(/C(=C(/CCCO)c3ccccc3)c3cccc(O)c3)cc2)CC1 [Compound 22ac] | 85 % of control | >100 % of control | >100 % of control | – | >100 % of control | – | –
CCN1CCC(c2ccc(C(=C(CCCO)c3ccccc3)c3cccc(O)c3)cc2)CC1 [Compound 22ae] | – | >100 % of control | – | – | >100 % of control | – | –
OCCC/C(=C(\c1ccc(O)cc1)c1ccc(C2CN(C3CC3)C2)cc1)c1ccccc1 [Compound 22d] | – | >100 % of control | >100 % of control | – | >100 % of control | 0.62 | –
Cc1ccc(/C(=C(\CCCO)c2ccccc2)c2ccc(C3CN(C(C)C)C3)cc2)cc1 [Compound 22e] | – | – | – | – | – | 0.61 | –
CC(C)N1CCC(c2ccc(/C(=C(/CCCO)c3ccccc3)c3cccc(O)c3)cc2)CC1 [Compound 22h] | – | >100 % of control | >100 % of control | – | – | – | –
OCCC/C(=C(\c1ccc(O)cc1)c1ccc(C2=CCN(C3CC3)CC2)cc1)c1ccccc1 [Compound 22j] | 85 % of control | – | – | – | 88 % of control | – | –
OCCC/C(=C(/c1ccc(C2=CCN(C3CC3)CC2)cc1)c1cccc(O)c1)c1ccccc1 [Compound 22l] | – | 97 % of control | – | 99 % of control | – | – | –
OCCC/C(=C(\c1ccc(O)cc1)c1ccc(N2CCN(C3CCC3)CC2)cc1)c1ccccc1 [Compound 22q] | 81 % of control | – | – | – | – | – | –
CC(C)N1CCC(c2ccc(/C(=C(/CCCO)c3ccccc3)c3ccc(N)cc3)cc2)CC1 [Compound 26c] | – | – | – | – | – | 4.80 | –
CC(C)N1CCN(c2ccc(/C(=C(/CCCO)c3ccccc3)c3ccc(OS(C)(=O)=O)cc3)cc2)CC1 [Compound 28a, (E)-4-(5-hydroxy-1-(4-(4-isopropylpiperazin-1-yl)phenyl)-2-phenylpent-1-en-1-yl)phenyl methanesulfonate] | – | – | – | – | – | 1.20 | –
CN1CCN(c2ccc(/C(=C(/CCCOC(=O)C(C)(C)C)c3ccccc3)c3ccc(O)cc3)cc2)CC1 [Compound 28f] | – | – | – | – | – | 0.98 | 4 % of control
CN1CCN(c2ccc(/C(=C(/CCCOC(=O)C(C)(C)C)c3ccccc3)c3ccc(OC(=O)C(C)(C)C)cc3)cc2)CC1 [Compound 28g] | – | – | – | – | – | – | 5.1 % of control
OCCC/C(=C(\c1ccc(O)cc1)c1ccc(OCCN2CCC[C@@H]2CO)cc1)c1ccccc1 [Compound 38c] | – | – | – | – | – | 0.99 | –
OCCC/C(=C(\c1ccc(O)cc1)c1ccc(OCCN2CCC3(CCNC3)C2)cc1)c1ccccc1 (stereo not shown) [Compound 39, (Z)-4-(1-(4-(2-(2,7-diazaspiro[4.4]nonan-2-yl)ethoxy)phenyl)-5-hydroxy-2-phenylpent-1-en-1-yl)phenol] | 59 % of control | 73.9 % of control | 82.5 % of control | 67.8 % of control | 74.4 % of control | – | –
C[Si](C)(CN1CCCC1)c1ccc(/C(=C(/CCCO)c2ccccc2)c2ccc(O)cc2)cc1 [Compound 42c] | – | – | – | – | – | 0.89 | 2.6 % of control

From patent publication US11285226B2, “Aryl ethene derivative and pharmaceutical composition containing same as active ingredient” (priority 2016, dated 2022)
